In patent US10052304B2, “Compositions and methods for cancer therapy” (UNIVERSITY OF IOWA RESEARCH FOUNDATION, priority 2015, dated 2018):
Entries after “also recorded” stand apart in the source; their conditions may differ.

Key:
terminal cancer patients = settings: high doses of ascorbate given both IV and orally; cited from earlier work
HBEpCs = assay: Cellular labile iron pool (Calcein-AM flow cytometry), HBEpCs; type: cell-based, human; settings: increasing doses of ascorbate
Method: (§1) The labile iron pool (LIP) was visualized using the fluorescent dye Calcein-AM as previously described (Epsztejn et al., 1997) with modifications. After labeling, samples were divided into two flow cytometry sample tubes, to which 100 μM 2′,2′-bipyridyl (BIP) was added to one tube and analyzed by flow cytometry. BIP tubes were incubated for at least 15 minutes before analysis to allow for full chelation of intracellular labile iron. The LIP (A.U.)=MFIBIP−MFINoBIP was normalized against the control samples to calculate the relative labile iron pool.
(§2) The labile iron pool (LIP) was visualized using the fluorescent dye Calcein-AM as previously described with modifications (Epsztejn et al., 1997). Briefly, after sample treatment, cells were trypsinized, spun at 1,200 rpm for 5 min, and resuspended at approximately 1×10^6 cells mL-1 in 500 nM Calcein-AM in PBS. Samples were incubated for 15 min at 4% O2 in a humidity controlled environment (37° C., 5% CO2). Subsequently, samples were pelleted, washed in PBS, and resuspended in 1 mL PBS before dividing each sample into two flow cytometry sample tubes, to which 100 μM 2′,2′-bipyridyl (BIP) was added to one tube. Samples were kept at room temperature and analyzed on a LSR II Flow Cytometer (BD Biosciences; λex=488 nm, λem=515/20 nm). […]

H1299 cells = assay: Clonogenic survival assay, H1299 NSCLC cells; type: cell-based, human
Method: (§3) Treatment conditions for individual experiments are as described in the figure legends and summarized in the Supplemental Experimental Procedures.
(§4) 1-2×10^5 cells were plated in 60 mm cell culture dishes and grown in their respective media for 48 h before exposed to experimental conditions. […] For AdGPx1 experiments, cells were supplemented with 50 nM sodium selenite following transduction and throughout clonogenic growth. […] After treatment, cells were washed with PBS and clonogenic assay was completed in their respective media. Briefly, floating and attached cells were collected and total cells per plate were counted. An experimentally derived number of cells were plated into each well of a 6-well cell culture plate in their respective media. For HEL92.1.7 suspension cells, cells were seeded in a top layer of 0.4% (w/v) agarose to allow for quantifiable colony formation. […] Normalized survival fractions were calculated by comparing plating efficiencies of each treatment group against the control group within a given experiment.

U118 cells = assay: Clonogenic survival assay, U118 GBM cells; type: cell-based, human
Method: as §3, §4

[1] = system: stage IV pancreas cancer patients; settings: cited from earlier work
ferritin = settings: read-out: Km of ascorbate-mediated Fe^+2 release from ferritin; cited from earlier work
NHAs = assay: Cellular labile iron pool (Calcein-AM flow cytometry), NHAs; type: cell-based, human; settings: increasing doses of ascorbate
Method: as §1, §2

OCI-MY5 = assay: Colony formation on soft agar, OCI-MY5 myeloma cells; type: cell-based, human; settings: 1 h treatment, colonies after 10-14 days
Description: A two-layer agar system was used, and colonies were visualized after 10-14 days.

ETC complex IV = ETC complex IV activity after ascorbate exposure; type: cell-based, human; settings: NSCLC cell lysates
Method: Exponentially growing cells were scraped and frozen as dry pellets until assayed for total activity. Aconitase activity was measured as the rate of appearance of NADPH (at 340 nm; Beckman DU 800 spectrophotometer, Brea, Calif.) for 45 min during the reaction of 200 μg total sample protein with 200 μM NADP^+ and 10 U isocitrate dehydrogenase as previously described (Case et al., 2011). Maximal ETC complex activity was measured as previously described (Birch-Machin et al., 1994). Complex I activity was quantified as the rate of rotenone-inhibitable NADH oxidation (320 nm; c=6.22 mM^−1 cm^−1). Complex II activity as the difference in the rate of DCIP reduction in the presence and absence of succinate (at 600 nm; ε=19.1 mM^−1 cm^−1). Complex IV activity was assayed as the rate of oxidation of cytochrome c ([…]; ε=19.6 mM^−1 cm^−1). Rates of activities were normalized to total protein by Lowry.
Exponentially growing cells were scraped and frozen as dry pellets until assayed for protein content (Lowry) and maximal ETC complex activity as previously described (Birch-Machin et al., 1994). Briefly, dry cell pellets were resuspended in 20 mM potassium phosphate buffer and sonicated 3×10 s each. Rates of activities were normalized to total protein. Complex I activity was quantified as the rate of rotenone-inhibitable NADH oxidation (320 nm; ε=6.22 mM-1 cm-1). […]

## O=C1O[C@H]([C@@H](O)CO)C(O)=C1O [ascorbate, L-ascorbic acid]
Terminal cancer patients
  average increase in survival: 300 days
HBEpCs
  cellular LIP after ascorbate: not seen
H1299 cells; 1 h ascorbate + 5 μM carboplatin + 2 Gy IR vs Carbo+IR alone
  sensitization to carboplatin + IR (clonogenic survival): significantly increased sensitivity to Carbo+IR; also recorded: selectively sensitized
H1299 cells; ascorbate alone, 1 h exposure
  clonogenic survival / cell killing: more clonogenic cell killing in NSCLC cell lines than chemotherapy plus radiation; also recorded: dose-dependent clonogenic cell killing
U118 cells; 1 h ascorbate + 25 μM temozolomide + 2 Gy IR
  sensitization to temozolomide + IR (clonogenic survival): selectively sensitized
U118 cells; ascorbate alone, increasing concentrations, 1 h
  clonogenic survival / cell killing: dose-dependent clonogenic cell killing
[1]; ascorbate + gemcitabine
  side effects attributed to the combination: rare and included diarrhea and dry mouth
[1]; pharmacological ascorbate + gemcitabine, stage IV pancreas cancer
  average survival: 14 months
ferritin
  Km: 1300 µM
NHAs
  cellular LIP after ascorbate: not seen
OCI-MY5
  ascorbate dose giving complete growth inhibition (colony formation): ≥ 10 pmol/cell
ETC complex IV
  ETC complex IV activity: no inhibition of activity
